Normal melting temperature data for two compounds are collected here from the NIST ThermoML archive (doi:10.1016/j.tca.2014.04.012).

For the data set the following is noted: Crystal; visual observation.

± gives the expanded uncertainty stated by the source.

For `CCN1C(=O)N(CC)C2NC(=O)NC21` (configuration not stated), the Normal melting temperature is 310.00 ± 2 °C.
To `CN1C(=O)N(C)C2NC(=O)NC21` (configuration not stated) belongs 260.00 ± 2 °C.
